Activity calls are given as the source filed them. No cut-off for these calls is given here.
Columns and labels:
[1] = tested on: Caco-2; experiment: Induction of apoptosis in human Caco-2 cells assessed as late apoptotic cells incubated at 0.098 uM for 72 hrs by annexin V-FITC based propidium iodide dual staining assay (reference value: 0.02%); format: functional
[2] = tested on: HeLa; experiment: Induction of apoptosis in human HeLa cells assessed as late apoptotic cells by measuring orange to red patch incubated at 0.098 uM for 72 hrs by acridine orange-ethidium bromide dual staining based fluorescence microscopic analysis; format: functional, cell-based
[3] = tested on: MCF7; experiment: Induction of apoptosis in human MCF7 cells assessed as necrotic cells incubated at 0.098 uM for 72 hrs by annexin V-FITC based propidium iodide dual staining assay (reference value: 0.03%); format: functional
[4] = tested on: HepG2; experiment: Induction of apoptosis in human HepG2 cells assessed as late apoptotic cells incubated at 0.098 uM for 72 hrs by annexin V-FITC based propidium iodide dual staining assay (reference value: 0.66%); format: functional
[5] = tested on: Caco-2; experiment: Anticancer activity against human Caco-2 cells assessed as absence of normal spindle shape incubated at 0.098uM for 72 hrs by phase contrast inverted microscopic analysis; format: functional, cell-based
[6] = tested on: Caco-2; experiment: Induction of apoptosis in human Caco-2 cells assessed as necrotic cells incubated at 0.098 uM for 72 hrs by annexin V-FITC based propidium iodide dual staining assay (reference value: 0.02 %); format: functional
[7] = tested on: HepG2; experiment: Induction of apoptosis in human HepG2 cells assessed as early apoptotic cells by measuring bright green patch incubated at 0.098 uM for 72 hrs by acridine orange-ethidium bromide dual staining based fluorescence microscopic analysis; format: functional, cell-based
[8] = tested on: HeLa; experiment: Anticancer activity against human HeLa cells assessed as absence of normal spindle shape incubated at 0.097uM for 72 hrs by phase contrast inverted microscopic analysis; format: functional, cell-based
[9] = tested on: HepG2; experiment: Anticancer activity against human HepG2 cells assessed as smaller cells incubated at 0.097uM for 72 hrs by phase contrast inverted microscopic analysis; format: functional, cell-based
[10] = tested on: HeLa; experiment: Induction of apoptosis in human HeLa cells assessed as late apoptotic cells by measuring orange to red patch incubated at 0.097 uM for 72 hrs by acridine orange-ethidium bromide dual staining based fluorescence microscopic analysis; format: functional, cell-based
[11] = tested on: MCF7; experiment: Anticancer activity against human MCF7 cells assessed as cell shrinkage incubated at 0.097uM for 72 hrs by phase contrast inverted microscopic analysis; format: functional, cell-based
[12] = tested on: Caco-2; experiment: Anticancer activity against human Caco-2 cells assessed as round cells incubated at 0.097uM for 72 hrs by phase contrast inverted microscopic analysis; format: functional, cell-based
[13] = tested on: MCF7; experiment: Anticancer activity against human MCF7 cells assessed as round cells incubated at 0.097uM for 72 hrs by phase contrast inverted microscopic analysis; format: functional, cell-based
[14] = tested on: HepG2; experiment: Induction of apoptosis in human HepG2 cells assessed as viable cells incubated at 0.097 uM for 72 hrs by annexin V-FITC based propidium iodide dual staining assay (reference value: 97.27%); format: functional; details: read-out: Activity
[15] = tested on: MCF7; experiment: Induction of apoptosis in human MCF7 cells assessed as viable cells incubated at 0.097 uM for 72 hrs by annexin V-FITC based propidium iodide dual staining assay (reference value: 99.9%); format: functional; details: read-out: Activity
[16] = tested on: HepG2; experiment: Induction of apoptosis in human HepG2 cells assessed as pro-oxidant effect by measuring free radical generation measured at 0.11 uM after 72 hrs; format: functional, cell-based
[17] = tested on: Caco-2; experiment: Induction of apoptosis in human Caco-2 cells assessed as late apoptotic cells by measuring orange to red patch incubated at 0.11 uM for 72 hrs by acridine orange-ethidium bromide dual staining based fluorescence microscopic analysis; format: functional, cell-based
[18] = tested on: HepG2; experiment: Induction of apoptosis in human HepG2 cells assessed as necrotic cells incubated at 0.11 uM for 72 hrs by annexin V-FITC based propidium iodide dual staining assay (reference value: 0.33%); format: functional
[19] = tested on: dsDNA; experiment: Induction of damage in dsDNA (unknown origin) assessed as disrupted by DNA by measuring decrease in fluorescence intensity at 100 uM incubated for 2.5 hrs by EvaGreen based fluorescence plate reader analysis; format: nucleic-acid assay
[20] = tested on: MCF7; experiment: Induction of apoptosis in human MCF7 cells assessed as necrotic cells incubated at 0.11 uM for 72 hrs by annexin V-FITC based propidium iodide dual staining assay (reference value: 0.03%); format: functional
[21] = tested on: HepG2; experiment: Induction of apoptosis in human HepG2 cells assessed as late apoptotic cells incubated at 0.11 uM for 72 hrs by annexin V-FITC based propidium iodide dual staining assay (reference value: 0.66%); format: functional
[22] = tested on: HepG2; experiment: Induction of oxidative stress in human HepG2 cells assessed as cell death by measuring redox alteration fluorescence incubated at 0.027 uM for 72 hrs in presence of dihydro dichlorofluorescein diacetate by DCFH-DA based flow cytometric analysis relative to control; format: functional
[23] = tested on: HepG2; experiment: Induction of apoptosis in human HepG2 cells assessed as total apoptotic cells incubated at 0.11 uM for 72 hrs by annexin V-FITC based propidium iodide dual staining assay (reference value: 0.99 +/- 0.02%); format: functional
[24] = tested on: HepG2; experiment: Induction of apoptosis in human HepG2 cells assessed as early apoptotic cells incubated at 0.11 uM for 72 hrs by annexin V-FITC based propidium iodide dual staining assay (reference value: 1.74%); format: functional
[25] = tested on: Caco-2; experiment: Induction of apoptosis in human Caco-2 cells assessed as caspase3/7 activation at 0.11 uM using caspase-glo 3/7 as substrate relative to control; format: functional
[26] = tested on: Caco-2; experiment: Anticancer activity against human Caco-2 cells assessed as cell shrinkage incubated at 0.11 uM for 72 hrs by phase contrast inverted microscopic analysis; format: functional, cell-based
[27] = tested on: HepG2; experiment: Induction of apoptosis in human HepG2 cells assessed as viable cells incubated at 0.11 uM for 72 hrs by annexin V-FITC based propidium iodide dual staining assay (reference value: 97.27%); format: functional; details: read-out: Activity
[28] = tested on: Caco-2; experiment: Induction of apoptosis in human Caco-2 cells assessed as necrotic cells incubated at 0.017 uM for 72 hrs by annexin V-FITC based propidium iodide dual staining assay (reference value: 0.02%); format: functional
[29] = tested on: MCF7; experiment: Induction of apoptosis in human MCF7 cells assessed as viable cells incubated at 0.017 uM for 72 hrs by annexin V-FITC based propidium iodide dual staining assay (reference value: 99.9%); format: functional; details: read-out: Activity
[30] = tested on: MCF7; experiment: Induction of oxidative stress in human MCF7 cells assessed as cell death by measuring redox alteration fluorescence incubated at 0.098 uM for 72 hrs in presence of dihydro dichlorofluorescein diacetate by DCFH-DA based flow cytometric analysis relative to control; format: functional
[31] = tested on: Caco-2; experiment: Induction of apoptosis in human Caco-2 cells assessed as early apoptotic cells incubated at 0.017 uM for 72 hrs by annexin V-FITC based propidium iodide dual staining assay (reference value: 0.07%); format: functional
[32] = tested on: Caco-2; experiment: Induction of apoptosis in human Caco-2 cells assessed as late apoptotic cells incubated at 0.017 uM for 72 hrs by annexin V-FITC based propidium iodide dual staining assay (reference value: 0.02%); format: functional
[33] = tested on: MCF7; experiment: Induction of apoptosis in human MCF7 cells assessed as early apoptotic cells incubated at 0.017 uM for 72 hrs by annexin V-FITC based propidium iodide dual staining assay (reference value: 0.06%); format: functional
[34] = tested on: Caco-2; experiment: Induction of oxidative stress in human Caco-2 cells assessed as cell death by measuring redox alteration fluorescence incubated at 0.097 uM for 72 hrs in presence of dihydro dichlorofluorescein diacetate by DCFH-DA based flow cytometric analysis relative to control; format: functional

**Q.** How did the Activity [1] turn out when `O=C(CN1C(=O)CN(/N=C/c2ccc([N+](=O)[O-])o2)C1=O)c1ccc(Cl)cc1` was run?
**A.** 27.58%

**Q.** What about the Activity [2] of the same molecule?
**A.** Active

**Q.** What about the Activity [3] of the same molecule?
**A.** 3.18%

**Q.** What about the Activity [4] of the same molecule?
**A.** 34.89%

**Q.** And the Activity [5]?
**A.** Active

**Q.** And the Activity [6]?
**A.** 3.37%

**Q.** And the Activity [7]?
**A.** Active

**Q.** What does the source list for `NS(=O)(=O)c1ccc(-n2cc(CN3C(=O)CN(/N=C/c4ccc([N+](=O)[O-])o4)C3=O)nn2)cc1`?
**A.** Activity [8]: Active; Activity [9]: Active; Activity [10]: Active; Activity [11]: Active; Activity [12]: Active; Activity [13]: Active; viability at 0.097 µM [14]: 78.9%; viability at 0.097 µM [15]: 31.1%

**Q.** With `C#CCN1C(=O)CN(/N=C/c2ccc([N+](=O)[O-])o2)C1=O` as the molecule, how does the Activity [16] read?
**A.** Active

**Q.** What about the Activity [17] of the same molecule?
**A.** Active

**Q.** What about the Activity [18] of the same molecule?
**A.** 3.66%

**Q.** What about the Activity [19] of the same molecule?
**A.** Active

**Q.** And the Activity [20]?
**A.** 4.01%

**Q.** What about the Activity [21] of the same molecule?
**A.** 59.49%

**Q.** What about the Activity [22] of the same molecule?
**A.** 54.19%

**Q.** What about the Activity [23] of the same molecule?
**A.** 63.15%

**Q.** What about the Activity [24] of the same molecule?
**A.** 4.8%

**Q.** And the Activity [25]?
**A.** 55%

**Q.** What about the Activity [26] of the same molecule?
**A.** Active

**Q.** And the viability at 0.11 µM [27]?
**A.** 32.1%

**Q.** With `O=c1[nH]cc(F)c(=O)[nH]1` [FLUOROURACIL] as the molecule, how does the Activity [28] read?
**A.** 0.97%

**Q.** What about the viability at 0.017 µM [29] of the same molecule?
**A.** 90.9%

**Q.** What about the Activity [30] of the same molecule?
**A.** 4.24%

**Q.** What about the Activity [31] of the same molecule?
**A.** 6.74%

**Q.** And the Activity [32]?
**A.** 2.71%

**Q.** What about the Activity [33] of the same molecule?
**A.** 6.16%

**Q.** And the Activity [34]?
**A.** 4.78%
